Patent publication US20050209278A1, “Piperidinyl- and piperazinyl-sulfonylmethyl hydroxamic acids and their use as protease inhibitors” (priority 2002, published 2005)
Where a name gives a salt, the structure may show the parent alone.

What was measured:
MMP-14 = biological target: T1, MMP-14 (Homo sapiens, UniProt P50281); test: In vitro MMP inhibition, IC50 determination (fluorogenic substrate I); assay type: biochemical; conditions: values in parenthesis; 4 μM substrate I; room temperature
T1 construct: The catalytic domain enzyme was expressed in E. coli inclusion bodies, solubilized in urea; made in house
Method: Several hydroxamic acids and salts thereof were analyzed in in vitro assays to determine their ability to inhibit the MMP cleavage of peptide substrates. […] and IC50 constants were calculated from the assayed hydroxamic acid-MMP interactions. Human recombinant MMP-1, MMP-2, MMP-9, MMP-13, and MMP-14 were used in this assay. All enzymes were prepared in Assignee's laboratories following usual laboratory procedures. Protocols for the preparation and use of these enzymes are available in the scientific literature. See, e.g., Enzyme Nomenclature (Academic Press, San Diego, Calif., 1992) (and the citations therein). See also, Freije et al., “Molecular cloning and expression of collagenase-3, a novel human matrix metalloproteinase produced by breast carcinomas,” J Biol. Chem., 269(24), 16766-16773 (1994). The MMP-14 full length cDNA was provided by Dr. Gregory Goldberg of Washington University (St. Louis, Mo.). The catalytic domain enzyme was expressed in E. coli inclusion bodies, solubilized in urea, purified on a preparative […] reverse phase HPLC column, and then refolded in the presence of zinc acetate and purified for use. All MMPs were activated using 4-aminophenylmercuric acetate (“APMA”, Sigma Chemical, St. Louis, Mo.) or trypsin. MMP-9 also was activated using human recombinant MMP-3 (purified in Assignee's laboratory following standard cloning and purification techniques). […] Substrate (I) was purchased from Baychem (Redwood City, Calif.), and substrate II was prepared Assignee's laboratory. Substrate I was used in the IC50 determination assays, while substrate II was used in the Ki determination assays. In the absence of MMP inhibitory activity, either substrate is cleaved at the Gly-Leu peptide bond. […] The stock solutions of the assayed hydroxamic acids (or salts thereof) were prepared in 1% dimethyl sulfoxide (DMSO). […] The experiment controls contained the same amount of Buffer A/DMSO as the assayed sample, but contained no hydroxamic acid (or salt thereof). The assays from which the IC50 determinations were made were performed as follows. […] Louis, Mo.). The assayed hydroxamic acid samples were incubated in MicrofluorTM White Plates (Dynatech, Chantilly, Va.) and analyzed on a Perkin Elmer […] plate reader (Norwalk, Conn.). The excitation wavelength was 328 nm, and the emission wavelength-415 nm. […] As stated in the previous paragraph, samples containing varying concentrations of the same assayed hydroxamic acid were prepared. Inhibition was measured as a reduction in fluorescent intensity as a function of MMP inhibitor concentration. […] All values in Table 2 are given in nM units. The IC50 measurements are in parenthesis.

MMP-1 = biological target: T2, MMP-1 (Homo sapiens, UniProt P03956); test: as above; assay type: biochemical; conditions: values in parenthesis; 4 μM substrate I; room temperature
T2 construct: made in house; host or cells: MMP-1-transfected HT-1080 cells (spent media)
T2 sequence (P03956 100-469): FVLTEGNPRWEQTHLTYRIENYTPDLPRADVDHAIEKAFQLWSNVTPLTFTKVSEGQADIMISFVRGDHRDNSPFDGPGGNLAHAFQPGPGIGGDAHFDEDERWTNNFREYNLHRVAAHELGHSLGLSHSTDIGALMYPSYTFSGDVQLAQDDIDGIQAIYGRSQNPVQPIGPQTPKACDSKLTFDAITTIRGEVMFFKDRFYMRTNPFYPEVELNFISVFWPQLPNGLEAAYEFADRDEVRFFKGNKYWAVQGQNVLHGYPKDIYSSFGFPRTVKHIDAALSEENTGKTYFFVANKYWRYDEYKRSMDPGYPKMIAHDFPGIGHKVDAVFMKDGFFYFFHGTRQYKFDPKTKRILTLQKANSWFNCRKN
Method: Several hydroxamic acids and salts thereof were analyzed in in vitro assays to determine their ability to inhibit the MMP cleavage of peptide substrates. […] and IC50 constants were calculated from the assayed hydroxamic acid-MMP interactions. Human recombinant MMP-1, MMP-2, MMP-9, MMP-13, and MMP-14 were used in this assay. All enzymes were prepared in Assignee's laboratories following usual laboratory procedures. Protocols for the preparation and use of these enzymes are available in the scientific literature. See, e.g., Enzyme Nomenclature (Academic Press, San Diego, Calif., 1992) (and the citations therein). See also, Freije et al., “Molecular cloning and expression of collagenase-3, a novel human matrix metalloproteinase produced by breast carcinomas,” J Biol. Chem., 269(24), 16766-16773 (1994). The MMP-1 proenzyme was purified from the spent media of MMP-1-transfected HT-1080 cells provided by Dr. Harold Welgus of Washington University (St. Louis, Mo.). The protein was purified on a zinc chelating column. All MMPs were activated using 4-aminophenylmercuric acetate (“APMA”, Sigma Chemical, St. Louis, Mo.) or trypsin. MMP-9 also was activated using human recombinant MMP-3 (purified in Assignee's laboratory following standard cloning and purification techniques). […] Substrate (I) was purchased from Baychem (Redwood City, Calif.), and substrate II was prepared Assignee's laboratory. Substrate I was used in the IC50 determination assays, while substrate II was used in the Ki determination assays. In the absence of MMP inhibitory activity, either substrate is cleaved at the Gly-Leu peptide bond. […] The stock solutions of the assayed hydroxamic acids (or salts thereof) were prepared in 1% dimethyl sulfoxide (DMSO). […] The experiment controls contained the same amount of Buffer A/DMSO as the assayed sample, but contained no hydroxamic acid (or salt thereof). The assays from which the IC50 determinations were made were performed as follows. […] Louis, Mo.). The assayed hydroxamic acid samples were incubated in MicrofluorTM White Plates (Dynatech, Chantilly, Va.) and analyzed on a Perkin Elmer […] plate reader (Norwalk, Conn.). The excitation wavelength was 328 nm, and the emission wavelength-415 nm. […] As stated in the previous paragraph, samples containing varying concentrations of the same assayed hydroxamic acid were prepared. Inhibition was measured as a reduction in fluorescent intensity as a function of MMP inhibitor concentration. […] All values in Table 2 are given in nM units. The IC50 measurements are in parenthesis.

SMILES	IC50 (MMP-14) [µM]	IC50 (MMP-1) [µM]
O=C(NO)C1(S(=O)(=O)N2CCN(c3ccc(OCC4CC4)c(F)c3)CC2)CCN(C2CC2)CC1 [Example 10, 1-cyclopropyl-4-[[4-[4-(cyclopropylmethoxy)-3-fluorophenyl]-1-piperazinyl]sulfonyl]-N-hydroxy-4-piperidinecarboxamide, dihydrochloride]	5.82	> 10
CCCCOc1ccc(N2CCN(S(=O)(=O)C3(C(=O)NO)CCN(CCOC)CC3)CC2)cc1F [Example 11, 4-[[4-(4-butoxy-3-fluorophenyl)-1-piperazinyl]sulfonyl]-N-hydroxy-1-(2-methoxyethyl)-4-piperidinecarboxamide, Dihydrochloride]	7.12	> 10

Further lines, results first:

IC50 (MMP-14) [µM]	IC50 (MMP-1) [µM]	SMILES
4.55	> 10	CCCCc1ccc(N2CCN(S(=O)(=O)C3(C(=O)NO)CCN(CCOC)CC3)CC2)cc1 [Example 5, 4-{[4-(4-butylphenyl)piperazin-1-yl]sulfonyl}-N-hydroxy-1-(2-methoxyethyl)piperidine-4-carboxamide Dihydrochloride]
> 10	> 10	CCCCCc1ccc(N2CCN(S(=O)(=O)C3(C(=O)NO)CCN(CCOC)CC3)CC2)cc1 [Example 6, N-Hydroxy-1-(2-methoxyethyl)-4-{[4-(4-pentylphenyl)piperazin-1-yl]sulfonyl}piperidine-4-carboxamide Dihydrochloride]
6.17	> 10	CCCCCc1ccc(C2CCN(S(=O)(=O)C3(C(=O)NO)CCN(CCOC)CC3)CC2)cc1 [Example 15, N-hydroxy-1-(2-methoxyethyl)-4-{[4-(4-pentylpheyl)piperidin-1-yl]sulfonyl}piperidine-4-carboxamide Hydrochloride]
